Data taken from US11453679B2, “Methyl 2-methyl-5-oxo-1,4,5,7-tetradhydrofuro[3,4-b]pyridine-3-carboxylate compounds as Cav1.2 activators” (Novartis AG, priority 2020, dated 2022).

What was measured:
[1] = test system: cFos mRNA; assay: cFos mRNA induction in cortex of wild-type mice (quantitative PCR); assay type: in vivo, C57BL/6J male mice; conditions: one hour after administration
Description: Compound administration and brain tissue collection.
Quantification of cFos mRNA induction. Tissue homogenization was performed using TissueLyser system for 96 well plates (Qiagen). First, frozen cortical samples were thawed, removed from RNAlater, and placed into TissueLyser tubes along with Buffer RLT containing 0.5% Reagent DX and one 5 mm TissueLyser metal bead. The TissueLyser tubes were loaded into a TissueLyser II tissue homogenizer for 3 rounds of homogenization, with each round lasting 5 minutes at 30 Hz bead-beating frequency. Total RNA was purified from the homogenate using RNeasy 96 Plus kit (Qiagen), RNA concentration and A260/A280 ratio were quantified via the Nanodrop (ThermoFisher), and all samples were normalized to 100 ng/μl concentration. RNA was reverse transcribed into cDNA using the Superscript III First-strand synthesis SuperMix Kit (ThermoFisher). For each sample, 6 μl of RNA (600 ng total) was mixed with 1 μL of Oligo dT and 1 μL of annealing buffer and heated to 65° C. for 5 minutes. Next, 10 μL of 2× First-Strand Reaction Mix and 2 μL of the Enzyme mix were added to achieve a total reaction volume of 20 μL. The samples were heated to 50° C. for 50 minutes then 85° C. for 5 minutes to complete cDNA synthesis.
Quantitative PCR was performed on the cDNA samples using Quantitect Multiplex RT-PCR kit (Qiagen) in a 384-well assay format. Each PCR well contained 2 μL of cDNA (60 ng total), 10 μL of RT-PCR mastermix, 1 μL of cFos FAM Taqman probe (Mm00487425_m1 (FAM) #4351368), 1 μL of GAPDH VIC Taqman probe (Mm99999915-g1 (VIC) #4448486), 0.2 μL of Multiplex RT mix and 5.8 μl of RNase-free water. On the ViiA7 Real-Time PCR system (ThermoFisher), the samples were heated to 95° C. for 15 minutes then cycled between 94° C. for 45 seconds and 60° C. for 45 seconds for 45 cycles. cFos Ct values were exported, normalized to GAPDH Ct values, and converted to relative fold change in expression using the delta-delta Ct relative quantification method. cFos fold changes between compound treatments and vehicle were analyzed by one-way ANOVA, followed by Tukey's post-hoc comparisons.

[2] = Compound exposure in wild-type mice (cerebellum and blood, mass spectrometry); conditions: male, C57BL/6J, mouse, brain (cerebellum) and whole blood
Description: Compound administration and brain tissue collection. Wild-type C57BL/6J male mice were obtained from Jackson laboratories (Bar Harbor, Me.). The acute, single-dose effects of Cav1.2 activators of the present disclosure were evaluated in male eight-week old mice (n=6 mice per compound). Each compound was dissolved in 10% PEG300, 10% Solutol, 10% Cremophore EL, and 70% Phosphate Buffered Saline and administered intraperitoneal (i.p.) at a concentration of 1 mg/kg up to 30 mg/kg depending on the compound. Animals were euthanized one hour after compound administration via exsanguination under deep anesthesia. Blood was collected in EDTA tubes for downstream analysis of drug levels. Brains were rapidly removed from the skull, and the cerebral cortex and cerebellum were regionally dissected. Cerebellar samples were snap frozen in liquid nitrogen to assess compound exposure.
Quantification of compound exposure. Cerebellar tissue samples were homogenized in 4 mL of 20% acetonitrile and 80% Phosphate buffered saline for every 1 g of tissue (5× dilution). Tissue was homogenized using either of the following three methods: hand held probe system, TissueLyser system with 5 mm steel bead at a frequency of 30 s^−1 for 4 min, or OMNI Bead Ruptor Elite homogenizer for 30 seconds to 1 minute depending on tissue type. Tissue samples were added to a 96-well plate (12.5 μL sample) and processed for quantification by mass spectrometry.

[3] = biological target: T1, human Cav1.2 (Homo sapiens, UniProt Q13936); assay: Sophion QPatch whole-cell voltage clamp dose-response assay, Cav1.2-HEK293(AUX) cell line (barium currents); conditions: for QPatch Emax: maximal fold change of peak inward current
T1 sequence (Q13936 whole entry): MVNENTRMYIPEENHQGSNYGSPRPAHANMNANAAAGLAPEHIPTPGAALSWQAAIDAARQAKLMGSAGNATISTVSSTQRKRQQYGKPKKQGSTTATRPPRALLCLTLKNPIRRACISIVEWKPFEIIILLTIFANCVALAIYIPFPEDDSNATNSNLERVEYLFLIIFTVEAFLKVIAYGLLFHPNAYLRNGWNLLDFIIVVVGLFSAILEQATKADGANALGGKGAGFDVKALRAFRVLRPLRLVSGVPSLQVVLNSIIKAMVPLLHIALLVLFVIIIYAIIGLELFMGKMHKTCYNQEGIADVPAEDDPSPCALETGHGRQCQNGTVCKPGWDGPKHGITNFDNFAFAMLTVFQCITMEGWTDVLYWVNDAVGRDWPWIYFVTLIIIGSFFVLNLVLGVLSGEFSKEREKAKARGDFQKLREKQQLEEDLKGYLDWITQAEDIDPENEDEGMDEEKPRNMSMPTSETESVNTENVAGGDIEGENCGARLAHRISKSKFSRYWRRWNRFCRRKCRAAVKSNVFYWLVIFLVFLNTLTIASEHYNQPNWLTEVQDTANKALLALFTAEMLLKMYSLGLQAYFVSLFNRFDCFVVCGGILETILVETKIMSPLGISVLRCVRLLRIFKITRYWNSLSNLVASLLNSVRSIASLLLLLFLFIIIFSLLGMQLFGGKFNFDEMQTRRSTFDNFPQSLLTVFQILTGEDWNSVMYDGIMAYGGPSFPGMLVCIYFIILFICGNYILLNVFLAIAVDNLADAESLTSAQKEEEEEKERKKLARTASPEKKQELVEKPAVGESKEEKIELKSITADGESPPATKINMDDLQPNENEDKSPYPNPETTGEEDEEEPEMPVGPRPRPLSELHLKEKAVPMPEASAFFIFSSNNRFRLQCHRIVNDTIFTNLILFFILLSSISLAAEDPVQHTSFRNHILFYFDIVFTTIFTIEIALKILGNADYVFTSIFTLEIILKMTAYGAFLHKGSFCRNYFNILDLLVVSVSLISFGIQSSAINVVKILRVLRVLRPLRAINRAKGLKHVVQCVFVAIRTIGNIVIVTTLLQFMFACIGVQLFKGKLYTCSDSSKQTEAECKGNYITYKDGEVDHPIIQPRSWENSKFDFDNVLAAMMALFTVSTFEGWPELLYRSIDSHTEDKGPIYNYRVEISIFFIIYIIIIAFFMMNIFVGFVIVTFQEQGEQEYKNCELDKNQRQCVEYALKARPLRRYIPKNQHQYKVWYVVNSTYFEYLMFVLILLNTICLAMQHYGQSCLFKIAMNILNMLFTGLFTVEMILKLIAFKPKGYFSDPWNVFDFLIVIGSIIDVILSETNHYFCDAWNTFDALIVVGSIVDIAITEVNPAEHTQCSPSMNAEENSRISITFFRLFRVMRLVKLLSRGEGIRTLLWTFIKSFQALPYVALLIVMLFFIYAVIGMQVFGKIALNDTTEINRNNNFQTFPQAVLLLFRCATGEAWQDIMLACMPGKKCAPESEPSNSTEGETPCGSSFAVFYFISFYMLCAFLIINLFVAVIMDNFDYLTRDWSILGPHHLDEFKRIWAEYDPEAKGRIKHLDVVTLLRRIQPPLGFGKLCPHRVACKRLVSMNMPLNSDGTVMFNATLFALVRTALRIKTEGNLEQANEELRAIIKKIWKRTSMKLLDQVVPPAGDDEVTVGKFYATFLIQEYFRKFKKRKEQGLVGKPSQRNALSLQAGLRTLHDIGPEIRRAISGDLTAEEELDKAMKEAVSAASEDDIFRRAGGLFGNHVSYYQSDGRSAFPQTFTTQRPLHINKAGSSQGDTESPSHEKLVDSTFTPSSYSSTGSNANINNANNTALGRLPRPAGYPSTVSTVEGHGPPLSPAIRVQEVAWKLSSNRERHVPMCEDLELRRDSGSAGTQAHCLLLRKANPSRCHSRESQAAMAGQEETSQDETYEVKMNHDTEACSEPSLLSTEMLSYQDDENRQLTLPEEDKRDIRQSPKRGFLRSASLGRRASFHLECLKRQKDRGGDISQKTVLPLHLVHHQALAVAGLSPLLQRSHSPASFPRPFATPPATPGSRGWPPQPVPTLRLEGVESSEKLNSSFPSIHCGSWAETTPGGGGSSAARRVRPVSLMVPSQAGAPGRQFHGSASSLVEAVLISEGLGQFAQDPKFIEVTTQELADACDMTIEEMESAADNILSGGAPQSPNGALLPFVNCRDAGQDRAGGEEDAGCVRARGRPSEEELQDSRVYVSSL
T1 sequence (Q9NY47 19-1001 partner limits assumed): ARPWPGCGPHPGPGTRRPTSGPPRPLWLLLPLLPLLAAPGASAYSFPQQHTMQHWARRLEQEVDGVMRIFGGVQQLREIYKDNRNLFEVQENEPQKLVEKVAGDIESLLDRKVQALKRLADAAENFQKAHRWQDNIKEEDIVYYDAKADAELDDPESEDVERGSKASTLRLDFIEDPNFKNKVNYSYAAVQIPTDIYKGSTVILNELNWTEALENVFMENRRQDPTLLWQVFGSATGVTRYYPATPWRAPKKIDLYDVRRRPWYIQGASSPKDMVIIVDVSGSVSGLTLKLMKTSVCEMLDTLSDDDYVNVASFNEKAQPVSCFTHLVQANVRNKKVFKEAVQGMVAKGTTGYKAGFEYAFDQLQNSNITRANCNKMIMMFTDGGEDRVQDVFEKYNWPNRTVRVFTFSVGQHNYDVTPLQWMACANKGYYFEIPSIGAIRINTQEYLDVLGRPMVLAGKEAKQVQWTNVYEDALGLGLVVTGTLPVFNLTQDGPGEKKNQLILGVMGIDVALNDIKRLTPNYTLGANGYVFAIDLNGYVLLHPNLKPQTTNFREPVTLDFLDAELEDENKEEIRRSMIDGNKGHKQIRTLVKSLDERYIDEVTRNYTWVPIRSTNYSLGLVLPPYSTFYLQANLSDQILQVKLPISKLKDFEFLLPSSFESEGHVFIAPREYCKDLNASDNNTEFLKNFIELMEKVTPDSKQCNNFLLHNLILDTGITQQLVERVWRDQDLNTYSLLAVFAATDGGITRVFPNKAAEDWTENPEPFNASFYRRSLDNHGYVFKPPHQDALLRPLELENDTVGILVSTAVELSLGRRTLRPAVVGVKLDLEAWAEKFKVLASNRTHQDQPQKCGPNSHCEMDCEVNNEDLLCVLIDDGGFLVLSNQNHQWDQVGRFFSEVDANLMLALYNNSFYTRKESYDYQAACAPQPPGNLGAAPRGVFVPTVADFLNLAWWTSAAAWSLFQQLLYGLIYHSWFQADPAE
T1 sequence (Q9NY47 1002-1150 partner limits assumed): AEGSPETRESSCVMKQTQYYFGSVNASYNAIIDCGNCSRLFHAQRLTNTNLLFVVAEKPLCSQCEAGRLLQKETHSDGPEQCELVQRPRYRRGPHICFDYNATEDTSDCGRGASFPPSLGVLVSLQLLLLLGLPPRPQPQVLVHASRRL
T1 sequence (Q08289 whole entry partner): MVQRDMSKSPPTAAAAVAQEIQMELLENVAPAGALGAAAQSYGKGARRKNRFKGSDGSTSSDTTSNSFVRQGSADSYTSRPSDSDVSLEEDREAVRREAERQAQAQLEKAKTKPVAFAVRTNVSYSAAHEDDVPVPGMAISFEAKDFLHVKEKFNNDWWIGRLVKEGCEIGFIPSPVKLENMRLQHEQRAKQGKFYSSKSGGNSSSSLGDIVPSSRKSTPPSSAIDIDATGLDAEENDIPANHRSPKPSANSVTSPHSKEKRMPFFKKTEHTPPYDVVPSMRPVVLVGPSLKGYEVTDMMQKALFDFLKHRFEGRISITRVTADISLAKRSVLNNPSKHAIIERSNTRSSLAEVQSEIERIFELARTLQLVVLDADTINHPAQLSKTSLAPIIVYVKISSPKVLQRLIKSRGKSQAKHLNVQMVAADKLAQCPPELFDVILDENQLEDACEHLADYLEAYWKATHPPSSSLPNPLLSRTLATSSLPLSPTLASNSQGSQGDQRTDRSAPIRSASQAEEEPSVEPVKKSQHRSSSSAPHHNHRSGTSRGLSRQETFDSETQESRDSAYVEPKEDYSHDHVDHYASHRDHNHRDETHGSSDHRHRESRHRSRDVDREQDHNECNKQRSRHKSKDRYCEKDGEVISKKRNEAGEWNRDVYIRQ
Description: 24 hours prior an electrophysiology experiment, doxycycline (1 μg/ml) was added to the growth medium (Table 1), and 25 μM of verapamil was co-applied to prevent calcium influx triggered cell death. Cell confluency should reach 70%-80% right before the experiment.
To harvest cells (from a T175 cm^2 flask as an example), growth media were removed completely, and the cells were rinsed with 10 mL of D-PBS. D-PBS was aspirated, and 10 mL of Detachin (Genlantis) was added and the plate was placed in a 37° C. incubator for 10 minutes. Detached cells were placed into a 15 mL conical tube and spun at 1000 rpm for 2 minutes. Supernatant was removed, and cells were re-suspended in QPatch complete media (Table 2) to desired cell density of 1.5-3 million cells per QPatch run. Each experimental run uses 1.5 mL of cells.
The cells suspension was taken to the Sophion QPatch platform that uses whole-cell voltage clamp to measure barium currents conducted through Cav1.2 on single-hole QPlates. […] A dose-response assay protocol was used to determine the maximal fold change of peak inward current (Emax) and potency (EC50) of each compound. The protocol had eight liquid periods. The first liquid period was to stabilize current amplitude, which was monitored using repetitive 200-ms voltage pulses stepping from −80 mV to 0 mV. The second liquid period was to determine baseline current amplitude in the presence of vehicle control, using a single 20-ms voltage pulse stepping from −80 mV to 0 mV. The third through eighth liquid periods were used to ascertain a 6-dose response to compound treatments, also using single 20-ms voltage pulses stepping from −80 mV to 0 mV. The EC50 was generated using the following equation Iconcentration=Ibase+(Ifull−Ibase)*c^n/(XC50^n+c^n), where c is the concentration and n is the Hill coefficient constant. Ifull is the maximal current achievable, and Ibase is 0.

[4] = biological target: T1, human Cav1.2; assay: QPatch channel biophysics assay (current-voltage relationship, V1/2, tau of inactivation), Cav1.2-HEK293(AUX) cell line; assay type: cell-based; parameters: expressed in transfected cells; host or cells: Flp-In 293 T-Rex (HEK293), clone 2-19B, stably transfected with pCMV6-entry-CACNA1C and pcDNA5H/FRT-TO-CACNA2D2-FCS-P2A-CACNB2
Description: Clonal isolation was achieved under Neomycin selection.
Each experimental run uses 1.5 mL of cells.
The protocol had eight liquid periods. […] The protocol had four liquid periods.

[5] = QPatch EC50, 6-point dose response, 20-ms pulses from −80 mV to 0 mV, n = 1 unless marked (* n = 2, # n = 3)
[6] = shift of half-way channel activation voltage (V1/2)
[7] = QPatch EC50, comparative examples, known CaV1.2 activators (Table 6)

Kp at 1 h ([2]; ip) | Kp at 1 h ([2]; intraperitoneal) | SMILES | % ↑cFOS mRNA cortex (3 mg/kg ip) [1] [%] | % ↑cFOS mRNA cortex (10 mg/kg ip) [1] [%] | EC50 [3, 5] [nM] | QPatch Emax [3] | Biophysics voltage shift [4, 6] [mV] | QPatch Emax ([3]; comparative examples (Table 6)) | EC50 [3, 7] [nM] | Biophysics voltage shift ([4]; comparative examples (Table 6)) [mV]
1.1 | – | COC(=O)C1=C(C)NC2=C(C(=O)OC2)[C@H]1c1cccc(F)c1[C@H]1CC1(F)F (single isomer, unassigned) [Example 1, Methyl (S)-4-(2-((R or S)-2,2-difluorocyclopropyl)-3-fluorophenyl)-2-methyl-5-oxo-1,4,5,7-tetrahydrofuro[3,4-b]pyridine-3-carboxylate] | 169 | 350 | 130 | 2.0 | −4.5 | – | – | –
– | – | COC(=O)C1=C(C)NC2=C(C(=O)OC2)[C@H]1c1cccc(F)c1C1CCC1 (single isomer, unassigned) [Example 3] | – | – | 80 | 1.8 | −6.6 | – | – | –
1.2 | – | COC(=O)C1=C(C)NC2=C(C(=O)OC2)[C@H]1c1cccc(F)c1C1CC1 (single isomer, unassigned) [Example 4] | 247 | 398 | 110 | 2.1 | −4.5 | – | – | –
– | – | COC(=O)C1=C(C)NC2=C(C(=O)OC2)[C@H]1c1cc(F)cc(F)c1[C@H]1CC1(F)F (single isomer, unassigned) [Example 5, Methyl (S)-4-(2-((R or S)-2,2-difluorocyclopropyl)-3,5-difluorophenyl)-2-methyl-5-oxo-1,4,5,7-tetrahydrofuro[3,4-b]pyridine-3-carboxylate] | – | – | 53 | 2.5 | −7.2 | – | – | –
– | – | COC(=O)C1=C(C)NC2=C(C(=O)OC2)[C@H]1c1cc(F)cc(F)c1[C@H]1CC1(F)F (single isomer, unassigned) [Example 6, Methyl (S)-4-(2-((R or S)-2,2-difluorocyclopropyl)-3,5-difluorophenyl)-2-methyl-5-oxo-1,4,5,7-tetrahydrofuro[3,4-b]pyridine-3-carboxylate] | – | – | 81 | 2.6 | −4.8 | – | – | –
1.7 | – | COC(=O)C1=C(C)NC2=C(C(=O)OC2)[C@H]1c1cc(F)cc(F)c1[C@@H](C)F (single isomer, unassigned) [Example 7, Methyl (S)-4-(3,5-difluoro-2-((S or R)-1-fluoroethyl)phenyl)-2-methyl-5-oxo-1,4,5,7-tetrahydrofuro[3,4-b]pyridine-3-carboxylate] | 158 | – | 30 | 1.7 | −6.6 | – | – | –
– | – | COC(=O)C1=C(C)NC2=C(C(=O)OC2)[C@H]1c1cccc(F)c1C(C)(C)F (single isomer, unassigned) [Example 8] | – | – | 218 | 1.6 | – | – | – | –
2.3 | – | COC(=O)C1=C(C)NC2=C(C(=O)OC2)[C@H]1c1cccc(F)c1CC(F)(F)F (single isomer, unassigned) [Example 9] | 112 | – | 130 | 1.5 | −6.6 | – | – | –
0.9 | – | COC(=O)C1=C(C)NC2=C(C(=O)OC2)[C@H]1c1cccc(F)c1[C@H](C)F (single isomer, unassigned) [Example 10, Methyl (S)-4-(3-fluoro-2-((S or R)-1-fluoroethyl)phenyl)-2-methyl-5-oxo-1,4,5,7-tetrahydrofuro[3,4-b]pyridine-3-carboxylate] | 204 | – | 40 | 2.2 | – | – | – | –
– | – | COC(=O)C1=C(C)NC2=C(C(=O)OC2)[C@H]1c1cccc(F)c1[C@@H](F)CF (single isomer, unassigned) [Example 11, Methyl (S)-4-(2-((R or S)-1,2-difluoroethyl)-3-fluorophenyl)-2-methyl-5-oxo-1,4,5,7-tetrahydrofuro[3,4-b]pyridine-3-carboxylate] | – | – | 40 | 1.4 | −6.8 | – | – | –
0.8 | – | CCc1c(F)cc(F)cc1[C@H]1C(C(=O)OC)=C(C)NC2=C1C(=O)OC2 (single isomer, unassigned) [Example 12] | 128 | – | 110 | 1.4 | −7.4 | – | – | –
1 | – | CCc1c(F)cccc1[C@H]1C(C(=O)OC)=C(C)NC2=C1C(=O)OC2 (single isomer, unassigned) [Example 13] | 165 | 281 | 220 | 1.5 | −4.8 | – | – | –
1.7 | – | COC(=O)C1=C(C)NC2=C(C(=O)OC2)[C@H]1c1cc(F)cc(F)c1C1CC1 (single isomer, unassigned) [Example 14] | 228 | 364 | 65 | 1.8 | −1.9 | – | – | –
1.3 | – | COC(=O)C1=C(C)NC2=C(C(=O)OC2)[C@H]1c1cccc(F)c1C(C)C (single isomer, unassigned) [Example 15] | 169 | – | 50 | 2 | −6.6 | – | – | –
– | – | COC(=O)C1=C(C)NC2=C(C(=O)OC2)[C@H]1c1cc(F)cc(F)c1C(C)C (single isomer, unassigned) [Example 18] | – | – | 102 | 2.2 | −6.5 | – | – | –
– | – | COC(=O)C1=C(C)NC2=C(C(=O)OC2)[C@H]1c1cccc(F)c1C1CC(F)C1 (single isomer, unassigned) [Example 20] | – | – | 86 | 1.6 | −6.1 | – | – | –
– | – | COC(=O)C1=C(C)NC(C)=C([N+](=O)[O-])[C@H]1c1ccccc1C(F)(F)F (single isomer, unassigned) [reference compound] | – | – | – | – | – | 3.9 | – | –
– | – | CCOC(=O)C1=C(C)NC2=C(C(=O)OC2)[C@H]1c1ccccc1OCc1ccccc1 (single isomer, unassigned) [reference compound] | – | – | – | – | – | 4.3 | 450 | −15.4
– | 0.23 | CCOC(=O)C1=C(C)NC2=C(C(=O)OC2)[C@H]1c1ccccc1OC(F)F (single isomer, unassigned) [reference compound] | – | – | – | – | – | 2.2 | 280 | −6.7
– | – | COC(=O)C1=C(C)NC2=C(C(=O)OC2)C1c1ccccc1C (single isomer, unassigned) [reference compound] | – | – | – | – | – | 1.4 | 2240 | –
– | – | COC(=O)C1=C(C)NC2=C(C(=O)OC2)C1c1ccccc1C(F)(F)F (single isomer, unassigned) [reference compound] | – | – | – | – | – | 1.4 | 360 | −4.3
– | – | COC(=O)C1=C(C)NC2=C(C(=O)OC2)C1c1ccccc1OC(F)F (single isomer, unassigned) [reference compound] | – | – | – | – | – | 1.7 | 510 | −7.1
– | – | CCOC(=O)C1=C(C)NC2=C(C(=O)OC2)C1c1ccccc1C(F)(F)F (single isomer, unassigned) [reference compound] | – | – | – | – | – | 1.9 | 930 | –
– | – | COC(=O)C1=C(C)NC2=C(C(=O)OC2)[C@H]1c1cccc(F)c1CC(F)F [Example 17, (S)-methyl 4-(2-(2,2-difluoroethyl)-3-fluorophenyl)-2-methyl-5-oxo-1,4,5,7-tetrahydrofuro[3,4-b]pyridine-3-carboxylate] | – | – | 271 | 1.8 | −6.6 | – | – | –
